These results are taken from patent publication EP4610269A1, “UROKINASE PLASMINOGEN ACTIVATOR SURFACE RECEPTOR (UPAR) LIGANDS FOR DIAGNOSTIC OR THERAPEUTIC USE” (3B Pharmaceuticals GmbH, priority 2024, dated 2025).

For assay [1], the target named is T1, uPAR-expressing HEC-265 human endometrial adenocarcinoma cells (Homo sapiens, UniProt Q03405).
T1 construct: Cell surface uPAR-expressing HEC-265 human endometrial adenocarcinoma cells; host or cells: HEC-265
Put plainly: Competitive FACS binding assay. The note with it: pIC50 category of FACS binding. In outline: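 Competitive displacement of a 10 nM biotinylated peptide from HEC-265 cells (1 h, 4 °C, PBS/1% BSA), detected via APC-streptavidin by flow cytometry. pIC50 from four-parameter logistic fit of median fluorescence versus concentration.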
Background: A flow cytometer gives signals particle by particle.

The target in another assay is T2, human uPAR (uPAR-Fc) (Homo sapiens, UniProt Q03405).
T2 construct: comprising amino acids Leu23-Arg303 according to UniProt entry Q03405.1; purchased R&D Systems 10378-UK-100
T2 sequence (Q03405 23-303): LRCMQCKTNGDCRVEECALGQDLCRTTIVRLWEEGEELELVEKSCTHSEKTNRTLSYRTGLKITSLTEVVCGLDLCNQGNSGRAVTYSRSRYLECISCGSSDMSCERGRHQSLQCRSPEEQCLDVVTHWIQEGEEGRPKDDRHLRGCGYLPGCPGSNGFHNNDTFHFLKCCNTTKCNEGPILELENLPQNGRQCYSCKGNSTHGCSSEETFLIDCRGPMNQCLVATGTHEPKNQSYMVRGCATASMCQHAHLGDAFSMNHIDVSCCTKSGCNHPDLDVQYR
Briefly: Surface plasmon resonance (SPR) assay, single cycle kinetics. It is filed as binding. The settings on record: pKD category for uPAR SPR activity assay; uPAR-Fc on Protein A-Chip, 25°C; read-out: pKD CAT (converted). In outline:
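uPAR-Fc (Leu23-Arg303 extracellular domains, human IgG1 Fc) captured on Protein A chip to ~2000 RU; single-cycle kinetics at 25°C in HEPES running buffer pH 7.4 with 0.1% DMSO. KD from double-referenced sensorgrams fitted to 1:1 Langmuir model, reported as pKD.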

The structures appear in SMILES notation. Where a SMILES comes first, the peptide text is derived from it. Bridges are numbered along the chain shown (N, C = ends). [ ]: non-standard residue; d: D form. The star is where a group is joined. DOTA = O=C(O)CN1CCN(CC(=O)O)CCN(CC(=O)*)CCN(CC(=O)O)CC1; Phe(4-NO2) = N[C@@H](Cc1ccc([N+](=O)[O-])cc1)C(=O)O; 2Nal = N[C@@H](Cc1ccc2ccccc2c1)C(=O)O; Hyp = O=C(O)[C@@H]1C[C@@H](O)CN1; 3Pal = N[C@@H](Cc1cccnc1)C(=O)O; Pentanoyl(4-Me) = CC(C)CCC(=O)*; Tic = O=C(O)[C@@H]1Cc2ccccc2CN1; Cit = NC(=O)NCCC[C@H](N)C(=O)O; Nva = CCC[C@H](N)C(=O)O; Pentanoyl = CCCCC(=O)*

T1 sequence (Q03405 23-335): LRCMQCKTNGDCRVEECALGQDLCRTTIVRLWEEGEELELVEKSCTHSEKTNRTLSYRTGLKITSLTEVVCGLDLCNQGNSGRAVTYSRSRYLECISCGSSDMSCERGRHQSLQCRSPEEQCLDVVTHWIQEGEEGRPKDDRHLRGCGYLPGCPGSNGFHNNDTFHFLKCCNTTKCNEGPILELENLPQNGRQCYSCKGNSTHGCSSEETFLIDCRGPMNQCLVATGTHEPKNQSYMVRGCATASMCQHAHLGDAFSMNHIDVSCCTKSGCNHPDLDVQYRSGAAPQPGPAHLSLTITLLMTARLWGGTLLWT

As a reminder, the IC50 is the concentration that gives 50% inhibition. Low readings indicate higher potency, high ones lower potency. The compound `CCCCC(=O)N[C@H]1CSSC[C@@H](C(N)=O)NC(=O)[C@H](CCC)NC(=O)[C@H]([C@@H](C)CC)NC(=O)[C@@H]2C[C@@H](O)CN2C(=O)[C@@H]2CCCN2C(=O)[C@@H]2Cc3ccccc3CN2C(=O)[C@H](Cc2ccc(O)cc2)NC(=O)[C@H](CCCCNC(=O)CN2CCN(CC(=O)O)CCN(CC(=O)O)CCN(CC(=O)O)CC2)NC(=O)[C@H](CCCNC(N)=O)NC1=O` [UPAR-252, Pent-[Cys-Cit-Lys(DOTA)-Tyr-Tic-Pro-Hyp-Ile-Nva-Cys]-NH2] (Pentanoyl-C[Cit]K(DOTA)Y[Tic]P[Hyp]I[Nva]C-NH2; disulfide 1-10) showed an IC50 in assay [1] not below 126 nM. The Kd on human uPAR (uPAR-Fc) was more than 100 nM.
The matching figures for `CCCCC(=O)N[C@H]1CSSC[C@@H](C(N)=O)NC(=O)[C@H](CCC)NC(=O)[C@H]([C@@H](C)CC)NC(=O)[C@@H]2C[C@@H](O)CN2C(=O)[C@@H]2CCCN2C(=O)[C@H](Cc2cccnc2)NC(=O)[C@H](Cc2ccc(O)cc2)NC(=O)[C@H](CCCCNC(=O)CN2CCN(CC(=O)O)CCN(CC(=O)O)CCN(CC(=O)O)CC2)NC(=O)[C@H](CCCNC(N)=O)NC1=O` [UPAR-253, Pent-[Cys-Cit-Lys(DOTA)-Tyr-Mpa-Pro-Hyp-Ile-Nva-Cys]-NH2] (Pentanoyl-C[Cit]K(DOTA)Y[3Pal]P[Hyp]I[Nva]C-NH2; disulfide 1-10): not above 10 nM and 1.58 to 10 nM.
Consider `CC[C@H](C)[C@@H]1NC(=O)[C@@H](C)NC(=O)[C@@H]2CCCN2C(=O)[C@H](Cc2ccccc2)NC(=O)[C@H](Cc2ccc(O)cc2)NC(=O)[C@H](CCC(=O)O)NC(=O)[C@H](CCCNC(N)=O)NC(=O)[C@@H](NC(=O)CCC(C)C)CSSC[C@@H](C(N)=O)NC(=O)[C@H](CC(C)C)NC1=O` [UPAR-255, iHex-[Cys-Cit-Glu-Tyr-Phe-Pro-ala-Ile-Leu-Cys]-NH2] ({Pentanoyl(4-Me)}-C[Cit]EYFP[dA]ILC-NH2; disulfide 1-10), for which the IC50 in assay [1] was not above 10 nM. Further, the Kd on human uPAR (uPAR-Fc) is less than 1.58 nM.
For the compound `CC[C@H](C)[C@@H]1NC(=O)[C@@H](C)NC(=O)[C@@H]2CCCN2C(=O)[C@H](Cc2ccccc2)NC(=O)[C@H](Cc2ccc(O)cc2)NC(=O)[C@H](CCCCNC(=O)CN2CCN(CC(=O)O)CCN(CC(=O)O)CCN(CC(=O)O)CC2)NC(=O)[C@H](CCCNC(N)=O)NC(=O)[C@@H](NC(=O)CCC(C)C)CSSC[C@@H](C(N)=O)NC(=O)[C@H](CC(C)C)NC1=O` [UPAR-256, iHex-[Cys-Cit-Lys(DOTA)-Tyr-Phe-Pro-ala-Ile-Leu-Cys]-NH2] ({Pentanoyl(4-Me)}-C[Cit]K(DOTA)YFP[dA]ILC-NH2; disulfide 1-10), the IC50 in assay [1] was not above 10 nM. Also, at human uPAR (uPAR-Fc), the Kd was less than 1.58 nM.
In the same order, the values of `CCCCC(=O)N[C@H]1CSSC[C@@H](C(N)=O)NC(=O)[C@H](CCC)NC(=O)[C@H]([C@@H](C)CC)NC(=O)[C@@H]2C[C@@H](O)CN2C(=O)[C@@H]2CCCN2C(=O)[C@H](Cc2ccccc2)NC(=O)[C@H](Cc2ccc([N+](=O)[O-])cc2)NC(=O)[C@H](CCCCNC(=O)CN2CCN(CC(=O)O)CCN(CC(=O)O)CCN(CC(=O)O)CC2)NC(=O)[C@H](CCCNC(N)=O)NC1=O` [UPAR-257, Pent-[Cys-Cit-Lys(DOTA)-Nif-Phe-Pro-Hyp-Ile-Nva-Cys]-NH2] (Pentanoyl-C[Cit]K(DOTA)[Phe(4-NO2)]FP[Hyp]I[Nva]C-NH2; disulfide 1-10) are not above 10 nM and less than 1.58 nM.
The matching figures for `CCCCC(=O)N[C@H]1CSSC[C@@H](C(N)=O)NC(=O)[C@H](CCC)NC(=O)[C@H]([C@@H](C)CC)NC(=O)[C@@H]2C[C@@H](O)CN2C(=O)[C@@H]2CCCN2C(=O)[C@H](Cc2ccccc2)NC(=O)[C@H](Cc2ccc3ccccc3c2)NC(=O)[C@H](CCC(N)=O)NC(=O)[C@H](CCCNC(=N)N)NC1=O` [UPAR-259, Pent-[Cys-Arg-Gln-2Ni-Phe-Pro-Hyp-Ile-Nva-Cys]-NH2] (Pentanoyl-CRQ[2Nal]FP[Hyp]I[Nva]C-NH2; disulfide 1-10): not above 10 nM and less than 1.58 nM.
